Data on nine compounds can be found in ChEMBL document CHEMBL1149764, “Synthesis, structure and biological activity of pseudopeptidic macrolides based on an amino alcohol” (Eur J Med Chem, 2008).

The nature of data set [1]: Toxicity against human erythrocytes assessed as hemolytic activity at 2000 ug/ml. The class given is cell-based, Erythrocyte. To be noted: read-out: Activity.
A further data set relates to Aspergillus niger. Description: Antifungal activity against Aspergillus niger ATCC 16404 after 48 hrs standard broth microdilution method. The class given is functional. The settings on record: ATCC 16404, 48 h. On the technique in general: Broth dilution looks for growth in wells or tubes with falling amounts of substance.
Another data set has as its system Cryptococcus neoformans. The data set is described as follows: Antifungal activity against Cryptococcus neoformans SYM 523 after 48 hrs standard broth microdilution method. Type of data set: functional.
A further data set concerns Staphylococcus aureus. Description: Antibacterial activity against Staphylococcus aureus ATCC 25923 after 24 hrs by twofold dilution method. Type of data set: functional. The settings on record: ATCC 25923, 24 h.
Data set [2] is described as follows: Toxicity against human erythrocytes assessed as hemolytic activity at 250 ug/ml. The class given is cell-based, Erythrocyte. To be noted: read-out: Activity.
Data set [3] is described as follows: Toxicity against human erythrocytes assessed as hemolytic activity at 1000 ug/ml. Type of data set: cell-based, Erythrocyte. The settings on record: read-out: Activity.
Data set [4] in a line: Antifungal activity against […] glutinis SYM 2209 after 48 hrs standard broth microdilution method. Type of data set: functional.
The test system of the next data set is Aspergillus flavus. Description: Antifungal activity against Aspergillus flavus SYM 223 after 48 hrs standard broth microdilution method. Type of data set: functional.
The test system of another data set is Saccharomyces cerevisiae. Description: Antifungal activity against Saccharomyces cerevisiae SYM 3513 after 48 hrs standard broth microdilution method. The class given is functional.
The nature of data set [5]: Toxicity against human erythrocytes assessed as hemolytic activity at 4000 ug/ml. The class given is cell-based, Erythrocyte. The settings on record: read-out: Activity.
Data set [6] is described as follows: Antifungal activity against […] nigricans SYM 2417 after 48 hrs standard broth microdilution method. Type of data set: functional.
Another data set has as its system Escherichia coli. Description: Antibacterial activity against Escherichia coli ATCC 25922 after 24 hrs by twofold dilution method. The class given is functional. To be noted: ATCC 25922, 24 h.
The test system of a further data set is Candida albicans. Description: Antifungal activity against Candida albicans ATCC 10231 after 48 hrs standard broth microdilution method. The settings on record: ATCC 10231, 48 h. The class given is functional.
A further data set deals with Bacillus subtilis. The data set is described as follows: Antibacterial activity against Bacillus subtilis ATCC 6633 after 24 hrs by twofold dilution method. The class given is functional. To be noted: ATCC 6633, 24 h.
A further data set deals with Pseudomonas aeruginosa. Description: Antibacterial activity against Pseudomonas aeruginosa ATCC 27853 after 24 hrs by twofold dilution method. The class given is functional. To be noted: ATCC 27853, 24 h.
Data set [7] can be described thus: Toxicity against human erythrocytes assessed as hemolytic activity at 500 ug/ml. The class given is cell-based, Erythrocyte. The settings on record: read-out: Activity.

In brackets after ≈: the same amount, converted by molar mass. Where only a bound is given, the exact number is not on record here.

For `O=C1O[C@H]2Cc3ccccc3[C@H]2NC(=O)c2cccc(c2)C(=O)N[C@@H]2c3ccccc3C[C@@H]2OC(=O)C2=CC=C1S2`, the hemolysis at 2000 ug/ml in [1] is 4%. For the same compound, the minimal inhibitory concentration (MIC) amounted to 32 µg/mL (≈ 56.7 µM) against Aspergillus niger; 4 µg/mL (≈ 7.08 µM) against Cryptococcus neoformans; 16 µg/mL (≈ 28.3 µM) against Staphylococcus aureus; 4 µg/mL (≈ 7.08 µM) in data set [4]; 8 µg/mL (≈ 14.2 µM) against Aspergillus flavus; 16 µg/mL (≈ 28.3 µM) against Saccharomyces cerevisiae. In addition, the MIC in [6] is 1 µg/mL (≈ 1.77 µM); against Escherichia coli it was 16 µg/mL (≈ 28.3 µM); against Candida albicans it was 1 µg/mL (≈ 1.77 µM); against Bacillus subtilis, above 64 µg/mL; in the data set on Pseudomonas aeruginosa it was above 64 µg/mL. The hemolysis at 250 ug/ml in [2] turned out to be 0%. In addition, the hemolysis at 1000 ug/ml in data set [3] worked out at 1%. Besides, the hemolysis at 4000 ug/ml in data set [5] was found to be 9%. Moreover, in [7], the hemolysis at 500 ug/ml came out at 0%.
Take `C[C@@H]1[C@H](O)[C@@H](C)/C=C/C=C/C=C/C=C/C=C/C=C/C=C/[C@H](O[C@@H]2O[C@H](C)[C@@H](O)[C@H](N)[C@@H]2O)C[C@@H]2O[C@](O)(C[C@@H](O)C[C@@H](O)[C@H](O)CC[C@@H](O)C[C@@H](O)CC(=O)O[C@H]1C)C[C@H](O)[C@H]2C(=O)O` [AMPHOTERICIN B]: the MIC amounted to 1 µg/mL (≈ 1.08 µM) with Aspergillus niger; 2 µg/mL (≈ 2.16 µM) in [4]; 0.5 µg/mL (≈ 0.541 µM) in the data set with Aspergillus flavus; 0.5 µg/mL (≈ 0.541 µM) with Saccharomyces cerevisiae; 1 µg/mL (≈ 1.08 µM) in the data set on Candida albicans.
For the compound `O=C1N[C@@H]2c3ccccc3C[C@@H]2OC(=O)c2cccc(n2)C(=O)O[C@H]2Cc3ccccc3[C@H]2NC(=O)c2cccc1n2`, in [1], the hemolysis at 2000 ug/ml came to 1%. Also, the minimal inhibitory concentration (MIC) with Aspergillus niger is 4 µg/mL (≈ 7.14 µM); in the data set on Cryptococcus neoformans it was 16 µg/mL (≈ 28.5 µM); in the data set on Staphylococcus aureus, 4 µg/mL (≈ 7.14 µM); in [4], 16 µg/mL (≈ 28.5 µM); in the data set with Aspergillus flavus it was above 64 µg/mL; against Saccharomyces cerevisiae, 64 µg/mL (≈ 114 µM). Further, the minimal inhibitory concentration (MIC) in [6] was 8 µg/mL (≈ 14.3 µM); with Escherichia coli, 32 µg/mL (≈ 57.1 µM); in the data set with Candida albicans it was 1 µg/mL (≈ 1.78 µM); against Bacillus subtilis it was 8 µg/mL (≈ 14.3 µM); against Pseudomonas aeruginosa, above 64 µg/mL. Further, in data set [2], the hemolysis at 250 ug/ml came out at 0%. The hemolysis at 1000 ug/ml in [3] came to 0%. For the same compound, the hemolysis at 4000 ug/ml in data set [5] amounted to 2%. Further, the hemolysis at 500 ug/ml in data set [7] was determined as 0%.
In the case of `O=C1O[C@H]2Cc3ccccc3[C@H]2NC(=O)c2cccc(n2)C(=O)N[C@@H]2c3ccccc3C[C@@H]2OC(=O)c2cccc1c2`, in data set [1], the hemolysis at 2000 ug/ml came out at 6%. The minimal inhibitory concentration (MIC) was 4 µg/mL (≈ 7.15 µM) in the data set on Aspergillus niger; 8 µg/mL (≈ 14.3 µM) in the data set with Cryptococcus neoformans; 32 µg/mL (≈ 57.2 µM) in the data set on Staphylococcus aureus; 8 µg/mL (≈ 14.3 µM) in data set [4]; 8 µg/mL (≈ 14.3 µM) against Aspergillus flavus; 16 µg/mL (≈ 28.6 µM) against Saccharomyces cerevisiae. For the same compound, the MIC was 4 µg/mL (≈ 7.15 µM) in data set [6]; above 64 µg/mL in the data set on Escherichia coli; 4 µg/mL (≈ 7.15 µM) with Candida albicans; 4 µg/mL (≈ 7.15 µM) in the data set on Bacillus subtilis; 32 µg/mL (≈ 57.2 µM) in the data set with Pseudomonas aeruginosa. For the same compound, the hemolysis at 250 ug/ml in [2] stood at 0%. The hemolysis at 1000 ug/ml in data set [3] was determined as 3%. In addition, the hemolysis at 4000 ug/ml in data set [5] was found to be 9%. In addition, the hemolysis at 500 ug/ml in data set [7] stood at 0%.
Take `OC(Cn1cncn1)(Cn1cncn1)c1ccc(F)cc1F` [FLUCONAZOLE]: the MIC in the data set on Aspergillus niger is 64 µg/mL (≈ 209 µM); in the data set with Cryptococcus neoformans, 32 µg/mL (≈ 104 µM); in data set [4] it was above 64 µg/mL; with Aspergillus flavus, 64 µg/mL (≈ 209 µM); against Saccharomyces cerevisiae, 32 µg/mL (≈ 104 µM); with Candida albicans it was 16 µg/mL (≈ 52.2 µM).
For `O=C1N[C@@H]2c3ccccc3C[C@@H]2OC(=O)c2cccc(c2)C(=O)O[C@H]2Cc3ccccc3[C@H]2NC(=O)c2cccc1c2`, in data set [1], the hemolysis at 2000 ug/ml turned out to be 0.5%. Further, the minimal inhibitory concentration (MIC) against Aspergillus niger came to 8 µg/mL (≈ 14.3 µM); against Cryptococcus neoformans it was 4 µg/mL (≈ 7.16 µM); with Staphylococcus aureus, 4 µg/mL (≈ 7.16 µM); in data set [4] it was 4 µg/mL (≈ 7.16 µM); in the data set with Aspergillus flavus it was 2 µg/mL (≈ 3.58 µM); in the data set on Saccharomyces cerevisiae, 32 µg/mL (≈ 57.3 µM). Moreover, the minimum inhibitory concentration (MIC) is 1 µg/mL (≈ 1.79 µM) in data set [6]; 16 µg/mL (≈ 28.6 µM) in the data set on Escherichia coli; 1 µg/mL (≈ 1.79 µM) in the data set on Candida albicans; 8 µg/mL (≈ 14.3 µM) against Bacillus subtilis; above 64 µg/mL against Pseudomonas aeruginosa. For the same compound, the hemolysis at 250 ug/ml in data set [2] is 0%. Moreover, the hemolysis at 1000 ug/ml in data set [3] was 0%. Also, the hemolysis at 4000 ug/ml in data set [5] was 2%. Further, in [7], the hemolysis at 500 ug/ml stood at 0%.
For the compound `O=C(N[C@H](CO)[C@H](O)c1ccc([N+](=O)[O-])cc1)C(Cl)Cl` [CHLORAMPHENICOL], the MIC in the data set with Staphylococcus aureus came out at 4 µg/mL (≈ 12.4 µM); in the data set with Escherichia coli it was 8 µg/mL (≈ 24.8 µM); in the data set on Bacillus subtilis it was 8 µg/mL (≈ 24.8 µM); in the data set with Pseudomonas aeruginosa it was 32 µg/mL (≈ 99 µM).
Turning to `O=C1O[C@H]2Cc3ccccc3[C@H]2NC(=O)c2cccc(n2)C(=O)N[C@@H]2c3ccccc3C[C@@H]2OC(=O)C2=CC=C1S2`, the hemolysis at 2000 ug/ml in data set [1] was 6%. Further, the MIC in the data set on Aspergillus niger turned out to be 4 µg/mL (≈ 7.07 µM); in the data set on Cryptococcus neoformans, 4 µg/mL (≈ 7.07 µM); with Staphylococcus aureus it was 8 µg/mL (≈ 14.1 µM); in [4] it was 4 µg/mL (≈ 7.07 µM); against Aspergillus flavus it was 1 µg/mL (≈ 1.77 µM); with Saccharomyces cerevisiae, 8 µg/mL (≈ 14.1 µM). For the same compound, the MIC in [6] was 1 µg/mL (≈ 1.77 µM); against Escherichia coli, above 64 µg/mL; against Candida albicans it was 1 µg/mL (≈ 1.77 µM); against Bacillus subtilis it was above 64 µg/mL; in the data set on Pseudomonas aeruginosa it was above 64 µg/mL. Further, the hemolysis at 250 ug/ml in [2] worked out at 0.5%. Besides, the hemolysis at 1000 ug/ml in [3] amounted to 4%. Besides, the hemolysis at 4000 ug/ml in data set [5] was 14%. The hemolysis at 500 ug/ml in [7] was found to be 1%.
Turning to `O=C1N[C@@H]2c3ccccc3C[C@@H]2OC(=O)c2cccc(n2)C(=O)O[C@H]2Cc3ccccc3[C@H]2NC(=O)c2cccc1c2`, the hemolysis at 2000 ug/ml in data set [1] was determined as 4%. Moreover, the MIC with Aspergillus niger was found to be 8 µg/mL (≈ 14.3 µM); against Cryptococcus neoformans, 16 µg/mL (≈ 28.6 µM); with Staphylococcus aureus it was 16 µg/mL (≈ 28.6 µM); in data set [4] it was 8 µg/mL (≈ 14.3 µM); in the data set with Aspergillus flavus it was 2 µg/mL (≈ 3.57 µM); against Saccharomyces cerevisiae, 32 µg/mL (≈ 57.2 µM). Further, the MIC in data set [6] was 4 µg/mL (≈ 7.15 µM); against Escherichia coli, 32 µg/mL (≈ 57.2 µM); in the data set with Candida albicans it was 4 µg/mL (≈ 7.15 µM); with Bacillus subtilis, above 64 µg/mL; against Pseudomonas aeruginosa, above 64 µg/mL. Further, the hemolysis at 250 ug/ml in data set [2] worked out at 0%. Also, the hemolysis at 1000 ug/ml in [3] stood at 2%. In addition, the hemolysis at 4000 ug/ml in [5] came to 7%. In [7], the hemolysis at 500 ug/ml worked out at 0%.

For orientation: MIC means the lowest concentration found to suppress growth. Read a high MIC as weaker potency.
